Data from patent US20250135050A1, “IODIDE NANOPARTICLES AND COMPOSITIONS OF METHODS OF USE THEREOF” (University of Georgia Research Foundation, Inc., priority 2021, published 2025).

How the values were obtained:
MCF-7 cells = experiment: MTT cytotoxicity assay; format: cell-based; conditions: FIG. 3A
Protocol: Cells were seeded in 96 well-plates (Corning, 3599) with 10,000 cells/well. […] The cellular media was replaced with media of the appropriate concentration of materials and incubated for a further 24 hours. MTT reagent was then added in the culture medium, followed by incubation at 37° C. for 3 h and the resulting purple crystal solubilized in DMSO. The absorbance was measured on a microplate reader (SynergyMx) at 590 nm, with the measurements performed in at least triplicate.

NIS = NIS expression by flow cytometry; format: cell-based; conditions: MCF-7 cells, tRA 1 μM
Protocol: In addition to MCF-7, MDA-MB-231 cells, which have a low expression of NIS, were analyzed as a comparison.

SMILES	toxicity of iodide (MCF-7 cells)	NIS expression (NIS)
I [iodide]	little toxicity	
CC1=C(/C=C/C(C)=C/C=C/C(C)=C/C(=O)O)C(C)(C)CCC1 [tRA, Trans retinoic acid]		induced NIS expression
